Common to all, as to type: in vivo
Test [1] concerns white blood cell count and classification in BALF of COPD model mouse. Nature of the test: Effect on white blood cell count and classification in BALF of COPD model mouse. The following applies: COPD mouse (LPS plus smoke exposure 30 days), ig 7 d, dose/kg: dexamethasone 1 mg, Test group 1 50, 2 25, 3 10, picrinine 10, vallesamine 6, scholaricine 7, 19-epi-scholaricine 2 mg, x ± SD. As to the method: (§1) Animal source: 25˜30 g male ICR mouse, from laboratory animal department of Kunming Medical University, License No. SCXK (Dian) 2011-0004.
(§2) Method and route: lipopolysaccharide (LPS) plus smoke exposure was used for 30 days to induce mouse chronic obstructive pulmonary disease model; and after intragastrical administration for 7 d at a dose of 20 mL/kg, the animal was sacrificed at the eighth day.
(§3) Picrinine group (10 mg/kg), Vallesamine group (6.0 mg/kg), Scholaricine group (7.0 mg/kg), 19-epischolaricine group (2.0 mg/kg).
(§4) Sample preparation: all the samples were prepared by using 0.5% carboxymethylcellulose sodium (0.5% CMC-Na).
Group and dose: in Test group 1, the ratio of picrinine, vallesamine, scholaricine and 19-epischolaricine by weight was 48:40:29:10, and the other groups and doses thereof were as described in Example 10.
Test index: total number of white blood cells and inflammatory cell classification in bronchoalveolar lavage fluid (BALF) were used as indexes, and were determined by full-automatic hemocytometer.

The test system of test [2] is SOD in serum and BALF of asthma model mouse. Nature of the test: Effect on SOD in serum and BALF of asthma model mouse. The following applies: ig 7 d, dose/kg: dexamethasone 2.0 mg, Test group 1 50, 2 25, picrinine 5.0, vallesamine 3.0, scholaricine 3.0, 19-epi-scholaricine 3.5 mg, x ± SD; for SOD lavage fluid: BALF. As for the experimental part:
as §1
(§5) Method and route: ovalbumin (OVA) was used to induce mouse asthma model, and after intragastrical administration for 7 d at a dose of 20 mL/kg, the animal was sacrificed at the eighth day.
(§6) Test group 1: picrinine, vallesamine, scholaricine and 19-epischolaricine prepared in Example 1.7 were homogeneously mixed at different ratios by weight (50 mg/kg), Test group 2: the alkaloid composition prepared in Example 1.4 (25 mg/kg). […]
as §4
Group and dose: in Test group 1, the ratio of picrinine, vallesamine, scholaricine and 19-epischolaricine by weight was 12:10:9:2, and the other groups and doses thereof were as described in Example 11.
Test index: SOD in serum and BALF was used as index, and was determined by xanthine oxidase method.

Test [3] has as its system IgE in serum of asthma model mouse. The test can be described thus: Effect on IgE in serum of asthma model mouse. The note with it: ELISA, ig 7 d, dose/kg: dexamethasone 2.0 mg, Test group 1 50, 2 25, picrinine 5.0, vallesamine 3.0, scholaricine 3.0, 19-epi-scholaricine 3.5 mg, x ± SD. As for the experimental part:
as §1, §5, §6, §4
Group and dose: In Test group 1, the ratio of picrinine, vallesamine, scholaricine and 19-epischolaricine by weight was 30:33:27:6, and the other groups and doses thereof were as described in Example 11.
Test index: immunoglobulin IgE in serum was used as index, and was determined by enzyme linked immunosorbent assay.
A general note: An ELISA detects its analyte on a solid surface through an enzyme-linked reagent.

Test [4] concerns IL-4 in BALF of asthma model mouse. The test can be described thus: Effect on IL-4 in BALF of asthma model mouse. The note with it: ELISA, ig 7 d, dose/kg: dexamethasone 2.0 mg, Test group 1 50, 2 25, picrinine 5.0, vallesamine 3.0, scholaricine 3.0, 19-epi-scholaricine 3.5 mg, x ± SD. As for the experimental part: as §1, §5, §6, §4
Group and dose: in Test group 1, the ratio of picrinine, vallesamine, scholaricine and 19-epischolaricine by weight was 25:18:15:3, and the other groups and doses thereof were as described in Example 11. […]

For test [5], the system named is SOD in serum and homogenate of COPD model mouse. Nature of the test: Effect on SOD in serum and homogenate of COPD model mouse. The following applies: ig 7 d, dose/kg: dexamethasone 1 mg, Test group 1 50, 2 25, 3 10, picrinine 10, vallesamine 6, scholaricine 7, 19-epi-scholaricine 2 mg, x ± SD; for SOD homogenate: lung homogenate. As for the experimental part: as §1, §2, §3, §4
Group and dose: in Test group 1, the ratio of picrinine, vallesamine, scholaricine and 19-epischolaricine by weight was 16:11:12:3, and the other groups and doses thereof were as described in Example 10.
Test index: SOD in serum and lung homogenate was used as index, and was determined by xanthine oxidase method.

Test [6] has as its system MDA in serum and homogenate of COPD model mouse. Nature of the test: Effect on MDA in serum and homogenate of COPD model mouse. The note with it: ig 7 d; for content of MDA (serum or homogenate not given): vallesamine 6, scholaricine 7, 19-epi-scholaricine 2 mg/kg; for MDA Homogenate: lung homogenate; for MDA Homogenate / MDA Serum: dose/kg: dexamethasone 1 mg, Test group 1 50, 2 25, 3 10, picrinine 10, vallesamine 6, scholaricine 7, 19-epi-scholaricine 2 mg, x ± SD. As for the experimental part:
as §1, §2, §3, §4
Group and dose: in Test group 1, the ratio of picrinine, vallesamine, scholaricine and 19-epischolaricine by weight was 9:6:5:1, and the other groups and doses thereof were as described in Example 10.
Test index: MDA in serum and homogenate was used as index, and was determined by thibabituric acid method.

Test [7] deals with IL-6 in serum of COPD model mouse. Nature of the test: Effect on IL-6 in serum of COPD model mouse. The note with it: ELISA, ig 7 d, dose/kg: dexamethasone 1 mg, Test group 1 50, 2 25, 3 10, picrinine 10, vallesamine 6, scholaricine 7, 19-epi-scholaricine 2 mg, x ± SD. As for the experimental part:
as §1, §2, §3, §4
Group and dose: in Test group 1, the ratio of picrinine, vallesamine, scholaricine and 19-epischolaricine by weight was 38:30:27:7, and the other groups and doses thereof were as described in Example 10.
Test index: IL-6 in serum was used as index, and was determined by enzyme linked immunosorbent assay.

In test [8] the test system is Eotaxin in serum of asthma model mouse. The test can be described thus: Effect on Eotaxin in serum of asthma model mouse. The following applies: ELISA, ig 7 d, dose/kg: dexamethasone 2.0 mg, Test group 1 50, 2 25, picrinine 5.0, vallesamine 3.0, scholaricine 3.0, 19-epi-scholaricine 3.5 mg, x ± SD. As to the method: as §1, §5, §6, §4
Group and dose: in Test group 1, the ratio of picrinine, vallesamine, scholaricine and 19-epischolaricine by weight was 37:42:30:8, and the other groups and doses thereof were as described in Example 11.
Test index: eosinophil chemotactic factor (Eotaxin) in serum was used as index, and was determined by enzyme linked immunosorbent assay.

Test [9] deals with MDA in serum and BALF of asthma model mouse. Nature of the test: Effect on MDA in serum and BALF of asthma model mouse. The following applies: ig 7 d, dose/kg: dexamethasone 2.0 mg, Test group 1 50, 2 25, picrinine 5.0, vallesamine 3.0, scholaricine 3.0, 19-epi-scholaricine 3.5 mg, x ± SD; for MDA lavage fluid: BALF. As to the method:
as §1, §5, §6, §4
Group and dose: in Test group 1, the ratio of picrinine, vallesamine, scholaricine and 19-epischolaricine by weight was 8:6:5:1, and the other groups and doses thereof were as described in Example 11.
Test index: MDA in serum and BALF was used as index, and was determined by thiobarbituric acid method.

The test system of test [10] is CRP in serum in COPD model mouse. Nature of the test: Effect on CRP in serum in COPD model mouse. The following applies: ELISA, ig 7 d, dose/kg: dexamethasone 1 mg, Test group 1 50, 2 25, 3 10, picrinine 10, vallesamine 6, scholaricine 7, 19-epi-scholaricine 2 mg, x ± SD. As for the experimental part: as §1, §2, §3, §4
Group and dose: in Test group 1, the ratio of picrinine, vallesamine, scholaricine and 19-epischolaricine by weight was 25:19:20:4, and the other groups and doses thereof were as described in Example 10.
Test index: CRP in serum was used as index, and was determined by enzyme linked immunosorbent assay.

Turning to `COC(=O)C1=C2Nc3c(O)cccc3[C@@]23CCN2C[C@@H]([C@H](C)O)[C@@H]1C[C@H]23` [19-epi-scholaricine, 19-epischolaricine], in [1], the Leukocyte number is 2.0 ± 1.6 ×10^5/mL. Besides, in [2], the SOD lavage fluid amounted to 71.82 ± 12.39 U/mL and the SOD Serum amounted to 73.85 ± 7.93 U/mL. Also, the IgE in test [3] was determined as 3.55 ± 0.87 µg/mL. Further, in test [4], the IL-4 was found to be 11.16 ± 3.58 pg/mL. In [5], this molecule came in with an SOD homogenate of 61.32 ± 9.35 U/mL. Further, in [6], the “content of MDA (serum or homogenate not given)” value is “significantly decrease”, the “MDA Homogenate” value is on record as 6.03 ± 0.66 nmol/mL and the “MDA Serum” value came out at 10.94 ± 1.67 nmol/mL. The molecule also returned an IL-6 in [7] of 23.3 ± 4.1 pg/mL. For the same molecule, in test [8], the Eotaxin is 8.74 ± 1.40 pg/mL. In [9], the MDA lavage fluid was found to be 2.55 ± 1.47 nmol/mL and the MDA Serum was 13.55 ± 4.66 nmol/mL.

On to `C/C=C1/CN2[C@@H]3C[C@@]45c6ccccc6N[C@]4(O3)[C@@H]2C[C@@H]1[C@H]5C(=O)OC` [picrinine], for which the Leukocyte number in test [1] was 2.1 ± 1.8 ×10^5/mL. For the same molecule, in [2], the SOD lavage fluid came to 62.32 ± 8.22 U/mL and the SOD Serum amounted to 70.31 ± 7.30 U/mL. This molecule came in with an IgE in [3] of 3.85 ± 0.72 µg/mL. The IL-4 in test [4] was determined as 12.60 ± 4.39 pg/mL. Moreover, in test [5], the SOD homogenate came to 56.01 ± 12.78 U/mL and the “SOD Serum” value amounted to 91.15 ± 10.90 U/mL. Also, in test [6], the “MDA Homogenate” value was found to be 6.17 ± 1.46 nmol/mL and the “MDA Serum” value came to 11.21 ± 4.46 nmol/mL. This molecule returned a CRP in test [10] of 23.5 ± 2.2 pg/mL. This molecule also registered an IL-6 in [7] of 23.9 ± 3.9 pg/mL. The molecule further yielded an Eotaxin in test [8] of 9.03 ± 1.80 pg/mL. In [9], this molecule gave an MDA lavage fluid of 3.29 ± 2.07 nmol/mL and an MDA Serum of 14.03 ± 5.71 nmol/mL.

On to `C/C=C1/CN2CC[C@@H]1[C@@](CO)(C(=O)OC)c1[nH]c3ccccc3c1C2` [vallesamine], for which, in [1], the Leukocyte number is 1.8 ± 1.7 ×10^5/mL and the Neutrophil number was 0.75 ± 0.51 ×10^5/mL. In test [2], this molecule gave an SOD lavage fluid of 70.88 ± 8.52 U/mL and an SOD Serum of 70.53 ± 7.77 U/mL. For the same molecule, in [3], the IgE is 3.57 ± 0.99 µg/mL. Moreover, the IL-4 in [4] turned out to be 11.61 ± 2.40 pg/mL. Further, in test [5], the SOD homogenate came out at 58.43 ± 5.73 U/mL and the “SOD Serum” value was found to be 91.72 ± 12.34 U/mL. In addition, in test [6], the “content of MDA (serum or homogenate not given)” value is recorded as “significantly decrease”, the “MDA Homogenate” value came to 7.12 ± 1.44 nmol/mL and the “MDA Serum” value was 11.07 ± 1.29 nmol/mL. The same molecule returned a CRP in test [10] of 23.8 ± 1.9 pg/mL. Also, in test [7], the IL-6 is given as 25.0 ± 3.6 pg/mL. In addition, in test [8], the Eotaxin is given as 8.90 ± 2.36 pg/mL. In test [9], the MDA lavage fluid is 2.92 ± 1.48 nmol/mL and the MDA Serum stood at 13.36 ± 6.10 nmol/mL.

The record behind these values is US10603345B2, “Pharmaceutical composition for treating respiratory disease” (Kunming Institute of Botany, The Chinese Academy of Sciences, priority 2015, dated 2020).
